Assay results: the OligoGym collection
Values joined by “and” are separate entries in the source; they are usually repeats but may differ in a detail not shown here. Identical values can stand only once. After the bases stand the sugars from the 5' end (letter, count) and the backbone: PS all phosphorothioate, else s phosphorothioate and o phosphodiester by linkage. Methylation of C is not given here. e = 2'-O-(2-methoxyethyl) (MOE); k = constrained ethyl (cEt); d = 2'-deoxy (DNA)

Molecular target: IRF4
Conditions: ASO

Sequence | target mRNA inhibition (SK-MEL-28, 4 µM) | target mRNA inhibition (MM.1R, 1 µM) | other results
GGCGGATAGATCTGTG (sugars k3 d10 k3, PS) | 51% | – | –
GTATTACTCTTAGGCA (sugars k3 d10 k3, PS) | 64% | 41% | target mRNA inhibition (MM.1R, 0.0625 µM): 13%; target mRNA inhibition (MM.1R, 0.074 µM): 15%; target mRNA inhibition (MM.1R, 0.222 µM): 7%; target mRNA inhibition (MM.1R, 0.25 µM): 24%; target mRNA inhibition (MM.1R, 0.666 µM): 21%; target mRNA inhibition (MM.1R, 2 µM): 51%; target mRNA inhibition (MM.1R, 4 µM): 69%
ACTGTTAAAGCAGCAT (sugars k3 d10 k3, PS) | 71% | – | –
CAGTGATGTCAGGTTT (sugars e1 k2 d9 k2 e2, PS) | – | 20% | –
GTTGGCTGGTCTTTGT (sugars kkdddddddddkdkdk, PS) | – | 56% | –
GCACTCTTACTCCGCT (sugars k3 d10 k3, PS) | – | 2% | –
AGGAAGCACTGGCATC (sugars k3 d10 k3, PS) | 57% | – | –
CCCTTCCCCGCGACTC (sugars k3 d10 k3, PS) | 19% | – | –
GTAACAACGACACACG (sugars k3 d10 k3, PS) | 59% | – | –
ATTTATAACCGGTAGA (sugars k3 d10 k3, PS) | – | 28% | –
ACCTACTCCATCACTT (sugars k3 d10 k3, PS) | -3% | – | –
TGCCAGAGGGCAAGAT (sugars k3 d10 k3, PS) | 2% | – | –
GGGCACCCCGCCCCGA (sugars k3 d10 k3, PS) | 1% | – | –
ACGCAGTGCACCTGTG (sugars k3 d10 k3, PS) | -7% | – | –
TTTACTAACTGGCTTC (sugars k3 d10 k3, PS) | 45% | – | –
CGCCTTAATGTTCAGC (sugars k3 d10 k3, PS) | 66% | – | –
TCCCATGGTTACTAAT (sugars k3 d10 k3, PS) | – | -10% | –
GCTGAGAGTTCAGGTC (sugars k3 d10 k3, PS) | – | 7% | –
AAGATACAAAACGGAC (sugars k3 d10 k3, PS) | 39% | – | –
ATGTTAGCCAATTCCT (sugars kkdddddddddkekek, PS) | – | 28% and 44% | –
GTCTTAGGTGTTCAAG (sugars k3 d10 k3, PS) | 56% | – | –
GCAGTGATGTCAGGTT (sugars kkdddddddddekeke, PS) | – | 80% | target mRNA inhibition (MM.1R, 0.074 µM): 22%; target mRNA inhibition (MM.1R, 0.222 µM): 49%; target mRNA inhibition (MM.1R, 0.666 µM): 73%; target mRNA inhibition (MM.1R, 2 µM): 92%
GAAGCATTTTATCATC (sugars k3 d9 k3 e1, PS) | – | 1% | –
AAGCACTGGCATTGAG (sugars k3 d10 k3, PS) | 42% | – | –

Sequence | target mRNA inhibition (SK-MEL-28, 4 µM) | target mRNA inhibition (MM.1R, 1 µM) | other results
AAGTGTCTAAAGTCCC (sugars kkdddddddddkekek, PS) | – | 12% and 22% | –
GGTAATCTTCTGGATT (sugars k3 d10 k3, PS) | 30% | – | –
CCTAGGACTAAGGACA (sugars k3 d10 k3, PS) | – | -3% | –
CAATAGTCTAGCTGGG (sugars k3 d10 k3, PS) | 63% | – | –
ACGAGGTTGCCGAGAT (sugars k3 d10 k3, PS) | – | 62% and 41% | target mRNA inhibition (MM.1R, 0.0625 µM): -16%; target mRNA inhibition (MM.1R, 0.25 µM): 7%; target mRNA inhibition (MM.1R, 4 µM): 78%
CTTTAGCCCATGCTCC (sugars k3 d10 k3, PS) | 20% | – | –
AATGTTCAGCTTTTCC (sugars k3 d10 k3, PS) | 63% | – | –
AGAAAGAGCTGGTAGG (sugars k3 d10 k3, PS) | 36% | – | –
CAAGCAGTGATGTCAG (sugars kddddddddddkekek, PS) | – | 35% and 43% | –
GACATATTTGCTTTGG (sugars k3 d10 k3, PS) | 58% | – | –
GAGCCAACTTATAGCA (sugars k3 d10 k3, PS) | – | 11% and 8% | –
CTTGCCGCTGTCGATC (sugars k3 d10 k3, PS) | 25% | – | –
CTGGAGAGCAATGAAC (sugars k3 d10 k3, PS) | 67% | – | –
ACATACCTACAAGCAG (sugars k3 d10 k3, PS) | 45% | – | –
TTGATGTGATAGCTGA (sugars k3 d10 k3, PS) | – | 55% | –
TCCTTTAGTGTCGCCA (sugars k3 d10 k3, PS) | 76% | – | –
CCACATAACTCAGGCA (sugars k3 d10 k3, PS) | 70% | – | –
AAAAACTTGGGTCACT (sugars k3 d10 k3, PS) | -19% | – | –
CAAACTATAATTGGCA (sugars k3 d10 k3, PS) | 53% | – | –
AGTTGTAAATGAGTCG (sugars kkkdddddddddkeke, PS) | – | 77% | target mRNA inhibition (MM.1R, 0.074 µM): 29%; target mRNA inhibition (MM.1R, 0.222 µM): 58%; target mRNA inhibition (MM.1R, 0.666 µM): 76%; target mRNA inhibition (MM.1R, 2 µM): 90%
GCAGAAGCTGGTTGGC (sugars k3 d10 k3, PS) | 58% | – | –
CATTATCTACCTCAGT (sugars k3 d10 k3, PS) | 35% | – | –
ACCTCAGTTTGTGAAG (sugars e1 k2 d9 k2 e2, PS) | – | 2% | –
ACCTGAATAGGAAGAT (sugars k3 d10 k3, PS) | 31% | – | –

Sequence | target mRNA inhibition (SK-MEL-28, 4 µM) | target mRNA inhibition (MM.1R, 1 µM) | other results
GCCTAGGACTAAGGAC (sugars k3 d10 k3, PS) | 33% | – | –
CGTGAAACAGCAGTTC (sugars k3 d10 k3, PS) | 40% | – | –
AGTTCATGTAAAGTCT (sugars kdddddddddkekeke, PS) | – | 29% and 10% | –
AATCACTTGTCTTGGG (sugars k3 d10 k3, PS) | 60% | – | –
ACAGTGACTTGCATCC (sugars kkdddddddddkdkdk, PS) | – | 18% | –
TGGCGGAGCATCAACA (sugars k3 d10 k3, PS) | 37% | – | –
CAGCACCGTGTGGAAA (sugars k3 d10 k3, PS) | 51% | – | –
AAACAGCCGCCGGCAC (sugars k3 d10 k3, PS) | 11% | – | –
GACGACAGCTGCGGAG (sugars k3 d10 k3, PS) | 45% | – | –
ATACTGGTTGGTTGGC (sugars k3 d10 k3, PS) | – | 69% and 75% | target mRNA inhibition (KMS11, 0.2 µM): 74% and 76%; target mRNA inhibition (MM.1R, 0.0625 µM): 51%; target mRNA inhibition (MM.1R, 0.25 µM): 61%; target mRNA inhibition (MM.1R, 4 µM): 86%
CCTAAATCACCCTGGT (sugars k3 d10 k3, PS) | 27% | – | –
GAAAATCTGGATGAGC (sugars k3 d10 k3, PS) | 64% | 22% | target mRNA inhibition (MM.1R, 0.0625 µM): 7%; target mRNA inhibition (MM.1R, 0.074 µM): 11%; target mRNA inhibition (MM.1R, 0.222 µM): -1%; target mRNA inhibition (MM.1R, 0.25 µM): 8%; target mRNA inhibition (MM.1R, 0.666 µM): -26%; target mRNA inhibition (MM.1R, 4 µM): 59%
TTTATCATCCGAAAAG (sugars k3 d10 k3, PS) | – | 7% | –
GTCAAACCCTACTGGG (sugars k3 d10 k3, PS) | 31% | – | –
GCTGAACTGTGTAATG (sugars k3 d10 k3, PS) | 58% | – | –
ACTGGATCTGAATTGT (sugars k3 d10 k3, PS) | 57% | – | –
AAAGCATAGAGTCACC (sugars k3 d10 k3, PS) | 34% | – | –
CCTCAAAGCTGTGAAA (sugars k3 d10 k3, PS) | 20% | – | –
TATCATGCATACCAAA (sugars k3 d10 k3, PS) | 58% | – | target mRNA inhibition (MM.1R, 0.074 µM): -4%; target mRNA inhibition (MM.1R, 0.222 µM): -7%; target mRNA inhibition (MM.1R, 0.666 µM): 3%; target mRNA inhibition (MM.1R, 2 µM): 14%
ACCTCAGTTTGTGAAG (sugars kkkdddddddddkeke, PS) | – | 8% | –
TTTAAAATATCGCCCA (sugars k3 d10 k3, PS) | – | -1% | –
AGTACTTGGACAGAAG (sugars k3 d10 k3, PS) | 43% | – | –
CTGCAGCCAAGGATAA (sugars k3 d10 k3, PS) | 48% | – | –
GATGTGATAGCTGAGC (sugars kkdddddddddkekek, PS) | – | 31% | –

Sequence | target mRNA inhibition (SK-MEL-28, 4 µM) | target mRNA inhibition (MM.1R, 1 µM) | other results
GAAGTTTACACTGGAT (sugars kkdddddddddkekek, PS) | – | 55% | target mRNA inhibition (MM.1R, 0.074 µM): 6%; target mRNA inhibition (MM.1R, 0.222 µM): 22%; target mRNA inhibition (MM.1R, 0.666 µM): 49%; target mRNA inhibition (MM.1R, 2 µM): 75%
GAGATATTAATTACTG (sugars k3 d10 k3, PS) | 63% | – | –
CTTTATGCGAAGAATT (sugars k3 d10 k3, PS) | 30% | – | –
TGCAAGATGACTCCAT (sugars k3 d10 k3, PS) | 57% | – | –
AGCTGCCACTGGTAAC (sugars k3 d10 k3, PS) | – | 0% | –
AAGGTTCCTGTCACCT (sugars k4 d8 k4, PS) | 14% | – | –
AATGGAGATACTTGTA (sugars k3 d10 k3, PS) | – | 26% | –
AGCTTGATAAAGGCTG (sugars kkdddddddddekeke, PS) | – | 18% | –
CCGGAGACCTTGAAGA (sugars k3 d10 k3, PS) | 9% | – | –
CTGGCTCCGCTCAACC (sugars k3 d10 k3, PS) | 52% | – | –
GCATTTTATCATCCGA (sugars k3 d9 k3 e1, PS) | – | 62% | target mRNA inhibition (MM.1R, 0.074 µM): 16%; target mRNA inhibition (MM.1R, 0.222 µM): 32%; target mRNA inhibition (MM.1R, 0.666 µM): 51%; target mRNA inhibition (MM.1R, 2 µM): 77%
GTACTTTCTCAAAACC (sugars k3 d10 k3, PS) | 70% | – | –
ACCTCAGTTTGTGAAG (sugars kkkddddddddkekek, PS) | – | -3% | –
CCTAGATAACATGAGA (sugars k3 d10 k3, PS) | 26% | – | –
CTGAACTGTGTAACTC (sugars k3 d10 k3, PS) | 28% | – | –
TCAACTTGTGACCCAC (sugars k3 d10 k3, PS) | – | 14% | –
GTGACTTGCATCCATG (sugars k3 d10 k3, PS) | – | 62% | –
TAACTGTATGGAACCC (sugars k3 d10 k3, PS) | – | 28% | –
ACTTGTGACCCACATA (sugars k3 d10 k3, PS) | – | -4% | –
TGTATCATGCATACCA (sugars k3 d10 k3, PS) | – | 3% | –
ACTTTTAGAGAGGAGA (sugars kkkddddddddkekek, PS) | – | 21% | –
CCCAGTCTACTGCTGT (sugars k3 d10 k3, PS) | 66% | – | –
